From PubChem BioAssay AID248 (DTP/NCI, 2004)
Several values for one entry are separate records, joined by “and”; a condition that tells them apart may be missing. Identical values can stand only once. Inconclusive results and toxic doses are left out.

Test system: L1210 leukemia ip in BDF1 mice, survival T/C
Assay: NCI In Vivo Anticancer Drug Screen. Data for tumor model L1210 Leukemia (intraperitoneal) in B6D2F1 (BDF1) mice
Details: endpoint: mean survival time, higher = longer survival
Summary of the method: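 Each compound was tested against a transplantable tumor grown in mice. The endpoint was survival, with treated animals benchmarked against vehicle controls as a simple ratio.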

[1] = dose: 100.0 mg/kg/injection, schedule: Q01DX001 (ip), vehicle: saline
[2] = dose: 100.0 mg/kg/injection, schedule: Q01DX009 (ip), vehicle: saline
[3] = dose: 200.0 mg/kg/injection, schedule: Q01DX001 (ip), vehicle: saline
[4] = dose: 200.0 mg/kg/injection, schedule: Q01DX009 (ip), vehicle: saline
[5] = dose: 400.0 mg/kg/injection, schedule: Q01DX001 (ip), vehicle: saline
[6] = dose: 400.0 mg/kg/injection, schedule: Q01DX009 (ip), vehicle: saline
[7] = dose: 100.0 mg/kg/injection, schedule: Q01DX009 (ip), vehicle: Klucel (hydroxypropylcellulose) (HPC)
[8] = dose: 100.0 mg/kg/injection, schedule: Q04DX003 (ip), vehicle: saline
[9] = dose: 200.0 mg/kg/injection, schedule: Q01DX009 (ip), vehicle: Klucel (hydroxypropylcellulose) (HPC)
[10] = dose: 200.0 mg/kg/injection, schedule: Q04DX003 (ip), vehicle: saline
[11] = dose: 400.0 mg/kg/injection, schedule: Q04DX003 (ip), vehicle: saline
[12] = dose: 50.0 mg/kg/injection, schedule: Q01DX009 (ip), vehicle: Klucel (hydroxypropylcellulose) (HPC)
[13] = dose: 100.0 mg/kg/injection, schedule: Q01DX001 (ip), vehicle: Klucel (hydroxypropylcellulose) (HPC)
[14] = dose: 200.0 mg/kg/injection, schedule: Q01DX001 (ip), vehicle: Klucel (hydroxypropylcellulose) (HPC)
[15] = dose: 400.0 mg/kg/injection, schedule: Q01DX001 (ip), vehicle: Klucel (hydroxypropylcellulose) (HPC)

## CNC(=N)c1ccc(NC(=N)c2ccc(NC(=N)c3ccc(NC(=O)Nc4ccc(C#N)cc4)cc3)cc2)cc1
dose: 3.25 mg/kg/injection, schedule: Q01DX015 (ip), vehicle: water
  T/C: 119 % of control
dose: 13.0 mg/kg/injection, schedule: Q01DX015 (ip), vehicle: water
  T/C: 160 % of control
dose: 17.0 mg/kg/injection, schedule: Q01DX Z (ip), vehicle: water
  T/C: 152 % of control
dose: 26.0 mg/kg/injection, schedule: Q01DX015 (ip), vehicle: water
  T/C: 205 % of control
dose: 30.0 mg/kg/injection, schedule: Q01DX001 (ip), vehicle: water
  T/C: 112 % of control
dose: 32.5 mg/kg/injection, schedule: Q01DX001 (ip), vehicle: water
  T/C: 180 % of control
dose: 34.0 mg/kg/injection, schedule: Q01DX Z (ip), vehicle: water
  T/C: 153 % of control
dose: 50.0 mg/kg/injection, schedule: Q01DX001 (ip), vehicle: water
  T/C: 151 % of control
dose: 65.0 mg/kg/injection, schedule: Q01DX001 (ip), vehicle: water
  T/C: 165 % of control and 210 % of control and 228 % of control
dose: 97.0 mg/kg/injection, schedule: Q01DX001 (ip), vehicle: water
  T/C: 232 % of control and 267 % of control

## CC1C[N+](C)(C)NC1=O (configuration not stated)
[1]
  T/C: 98 % of control
[2]
  T/C: 103 % of control
[3]
  T/C: 103 % of control
[4]
  T/C: 107 % of control
[5]
  T/C: 92 % of control
[6]
  T/C: 91 % of control

## CC[N+](CC)(CCO)CCCCCCCCCC[N+](CC)(CC)CCO
dose: 0.15 mg/kg/injection, schedule: Q04DX003 (ip), vehicle: saline
  T/C: 100 % of control
dose: 0.3 mg/kg/injection, schedule: Q04DX003 (ip), vehicle: saline
  T/C: 103 % of control
dose: 0.6 mg/kg/injection, schedule: Q04DX003 (ip), vehicle: saline
  T/C: 105 % of control

## O=c1c([N+](=O)[O-])cc([N+](=O)[O-])cn1O
dose: 100.0 mg/kg/injection, schedule: Q04DX003 (ip), vehicle: Klucel (hydroxypropylcellulose) (HPC)
  T/C: 100 % of control
dose: 200.0 mg/kg/injection, schedule: Q04DX003 (ip), vehicle: Klucel (hydroxypropylcellulose) (HPC)
  T/C: 100 % of control
dose: 400.0 mg/kg/injection, schedule: Q04DX003 (ip), vehicle: Klucel (hydroxypropylcellulose) (HPC)
  T/C: 90 % of control

## Cc1ccc(Cl)cc1NC(=O)c1ccc(Cl)cc1
[7]
  T/C: 99 % of control
[8]
  T/C: 114 % of control
[9]
  T/C: 89 % of control
[10]
  T/C: 97 % of control
dose: 400.0 mg/kg/injection, schedule: Q01DX009 (ip), vehicle: Klucel (hydroxypropylcellulose) (HPC)
  T/C: 93 % of control
[11]
  T/C: 119 % of control

## O=C(NCCN1CCCC1)NC1CCCCC1
[7]
  T/C: 101 % of control
[9]
  T/C: 98 % of control

## O=C(CNC(=O)OCc1ccccc1)NCCCCCCNCCCCCCNC(=O)CNC(=O)OCc1ccccc1
dose: 1.25 mg/kg/injection, schedule: Q01DX Z (ip), vehicle: saline
  T/C: 93 % of control
dose: 2.5 mg/kg/injection, schedule: Q01DX Z (ip), vehicle: saline
  T/C: 93 % of control
dose: 5.0 mg/kg/injection, schedule: Q01DX Z (ip), vehicle: saline
  T/C: 94 % of control
dose: 10.0 mg/kg/injection, schedule: Q01DX Z (ip), vehicle: saline
  T/C: 93 % of control

## COc1ccc([N+](=O)[O-])cc1NC(=O)N(c1ccccc1)C(C)C
[12]
  T/C: 101 % of control
[7]
  T/C: 107 % of control
[9]
  T/C: 86 % of control

## CCOC(=O)Sc1ncnc2nc[nH]c12
dose: 10.0 mg/kg/injection, schedule: Q01DX Z (ip), vehicle: carboxymethylcellulose (CMC)
  T/C: 117 % of control

## CC12CC3(O)OC(O1)C1(COC(=O)c4ccccc4)C3CC21OC1OC(CO)C(O)C(O)C1O (configuration not stated)
dose: 100.0 mg/kg/injection, schedule: Q04DX002 (ip), vehicle: saline
  T/C: 107 % of control
dose: 200.0 mg/kg/injection, schedule: Q04DX002 (ip), vehicle: saline
  T/C: 107 % of control
dose: 400.0 mg/kg/injection, schedule: Q04DX002 (ip), vehicle: saline
  T/C: 114 % of control

## CCCCCCCCCCCCCC(=O)OC1CCC2(C)C(=CCC3C2CCC2(C)C(C(C)CCCC(C)C)CCC32)C1 (configuration not stated)
dose: 50.0 mg/kg/injection, schedule: Q01DX001 (ip), vehicle: Klucel (hydroxypropylcellulose) (HPC)
  T/C: 96 % of control
[13]
  T/C: 89 % of control
[14]
  T/C: 87 % of control and 89 % of control
[15]
  T/C: 87 % of control

## Cc1cc(Cl)c2ccccc2c1N
dose: 100.0 mg/kg/injection, schedule: Q01DX009 (ip), vehicle: saline with Tween-80
  T/C: 106 % of control
dose: 100.0 mg/kg/injection, schedule: Q04DX003 (ip), vehicle: saline with Tween-80
  T/C: 104 % of control
dose: 200.0 mg/kg/injection, schedule: Q01DX009 (ip), vehicle: saline with Tween-80
  T/C: 96 % of control
dose: 200.0 mg/kg/injection, schedule: Q04DX003 (ip), vehicle: saline with Tween-80
  T/C: 102 % of control
dose: 400.0 mg/kg/injection, schedule: Q01DX009 (ip), vehicle: saline with Tween-80
  T/C: 98 % of control
dose: 400.0 mg/kg/injection, schedule: Q04DX003 (ip), vehicle: saline with Tween-80
  T/C: 100 % of control

## c1ccc(CC(Cc2ccccc2)=[N+]2CCCC2)cc1
[2]
  T/C: 91 % of control
[8]
  T/C: 104 % of control
[4]
  T/C: 92 % of control
[10]
  T/C: 98 % of control
[6]
  T/C: 101 % of control
[11]
  T/C: 105 % of control

## Cc1cc(C)c(NC(=O)CC#N)c(C)c1
dose: 100.0 mg/kg/injection, schedule: Q04DX002 (ip), vehicle: saline with Tween-80
  T/C: 90 % of control
dose: 200.0 mg/kg/injection, schedule: Q04DX002 (ip), vehicle: saline with Tween-80
  T/C: 90 % of control
dose: 400.0 mg/kg/injection, schedule: Q04DX002 (ip), vehicle: saline with Tween-80
  T/C: 90 % of control

## O=[N+]([O-])c1ccc(N2CCCC2)cc1
[13]
  T/C: 97 % of control
[14]
  T/C: 105 % of control
[15]
  T/C: 108 % of control

## CCN(C)CCC(CC=C(C)C)(C(N)=O)c1cccc2ccccc12 (configuration not stated)
dose: 12.5 mg/kg/injection, schedule: Q04DX002 (ip), vehicle: saline
  T/C: 100 % of control
dose: 25.0 mg/kg/injection, schedule: Q04DX002 (ip), vehicle: saline
  T/C: 87 % of control

## COc1c(F)c(F)c(Oc2c(F)c(F)c(OC)c(F)c2F)c(F)c1F
[13]
  T/C: 99 % of control
[14]
  T/C: 92 % of control
[15]
  T/C: 94 % of control

## O=[N+]([O-])c1ccn(O)c(=Nc2ccccc2)c1
[1]
  T/C: 108 % of control
[3]
  T/C: 104 % of control
[5]
  T/C: 100 % of control

## CN(C)/N=C1/CC(=O)CC(C)(C)C1
[12]
  T/C: 110 % of control
[7]
  T/C: 100 % of control
[9]
  T/C: 100 % of control

## CCC[CH2][Sn]([CH2]C)([CH2]C)[O]C(C)=O
dose: 5.0 mg/kg/injection, schedule: Q01DX001 (ip), vehicle: saline with Tween-80
  T/C: 90 % of control
dose: 10.0 mg/kg/injection, schedule: Q01DX001 (ip), vehicle: saline with Tween-80
  T/C: 93 % of control

## CC1(C)CCCC2(C)C(C(=O)O)C3CCC45OC3(CC12)OC(=O)C4C1(C)CCCC(C)(C)C1CC5=O (configuration not stated)
[1]
  T/C: 101 % of control
[3]
  T/C: 107 % of control
[5]
  T/C: 109 % of control

## Cc1ccc(Nc2ncnc3nc[nH]c23)cc1CN(CCO)CCO
[1]
  T/C: 101 % of control
[3]
  T/C: 101 % of control
[5]
  T/C: 95 % of control

## O=C(NCc1ccco1)Nc1ccc([N+](=O)[O-])cc1
dose: 222.0 mg/kg/injection, schedule: Q01DX Z (ip), vehicle: methylcellulose (MC)
  T/C: 101 % of control
dose: 333.0 mg/kg/injection, schedule: Q01DX Z (ip), vehicle: methylcellulose (MC)
  T/C: 94 % of control
dose: 500.0 mg/kg/injection, schedule: Q01DX Z (ip), vehicle: methylcellulose (MC)
  T/C: 96 % of control

## CSc1cc2c(cc1NC(C)=O)Cc1ccccc1-2
dose: 100.0 mg/kg/injection, schedule: Q01DX001 (ip), vehicle: carboxymethylcellulose (CMC)
  T/C: 93 % of control
dose: 200.0 mg/kg/injection, schedule: Q01DX001 (ip), vehicle: carboxymethylcellulose (CMC)
  T/C: 95 % of control
dose: 400.0 mg/kg/injection, schedule: Q01DX001 (ip), vehicle: carboxymethylcellulose (CMC)
  T/C: 95 % of control

## CC(=O)Nc1ccc2c3c(ccc([N+](=O)[O-])c13)CC2
[2]
  T/C: 90 % of control
[8]
  T/C: 108 % of control
[4]
  T/C: 93 % of control
[10]
  T/C: 110 % of control
[6]
  T/C: 108 % of control
[11]
  T/C: 110 % of control

## CCOC(=O)/C(O)=C\c1nnc(Cl)cc1Cl
dose: 75.0 mg/kg/injection, schedule: Q04DX002 (ip), vehicle: Klucel (hydroxypropylcellulose) (HPC)
  T/C: 93 % of control
dose: 150.0 mg/kg/injection, schedule: Q04DX002 (ip), vehicle: Klucel (hydroxypropylcellulose) (HPC)
  T/C: 96 % of control
dose: 300.0 mg/kg/injection, schedule: Q04DX002 (ip), vehicle: Klucel (hydroxypropylcellulose) (HPC)
  T/C: 116 % of control
